Reference: ChEMBL document CHEMBL5649166, “RIP3 induces apoptosis independent of pronecrotic kinase activity” (Mol Cell, 2014)

What was measured:
[1] = biological target: Serine/threonine-protein kinase PLK1 (Homo sapiens) (UniProt P53350); test: Inhibition of human PLK1 using casein as substrate at 1 uM in presence of 32P-ATP by Hotspot assay relative to control; values are per cent of control
[2] = biological target: CDK1/Cyclin A (Homo sapiens) (UniProt P06493+P20248); test: Inhibition of human CDK1/cyclin A using RB Protein as substrate at 1 uM in presence of 32P-ATP by Hotspot assay relative to control; values are per cent of control
[3] = biological target: T1, Mitogen-activated protein kinase kinase kinase 7 (Homo sapiens) (UniProt O43318); test: Inhibition of human TAK1 using casein as substrate at 1 uM in presence of 32P-ATP by Hotspot assay relative to control; values are per cent of control
T1 sequence (whole entry): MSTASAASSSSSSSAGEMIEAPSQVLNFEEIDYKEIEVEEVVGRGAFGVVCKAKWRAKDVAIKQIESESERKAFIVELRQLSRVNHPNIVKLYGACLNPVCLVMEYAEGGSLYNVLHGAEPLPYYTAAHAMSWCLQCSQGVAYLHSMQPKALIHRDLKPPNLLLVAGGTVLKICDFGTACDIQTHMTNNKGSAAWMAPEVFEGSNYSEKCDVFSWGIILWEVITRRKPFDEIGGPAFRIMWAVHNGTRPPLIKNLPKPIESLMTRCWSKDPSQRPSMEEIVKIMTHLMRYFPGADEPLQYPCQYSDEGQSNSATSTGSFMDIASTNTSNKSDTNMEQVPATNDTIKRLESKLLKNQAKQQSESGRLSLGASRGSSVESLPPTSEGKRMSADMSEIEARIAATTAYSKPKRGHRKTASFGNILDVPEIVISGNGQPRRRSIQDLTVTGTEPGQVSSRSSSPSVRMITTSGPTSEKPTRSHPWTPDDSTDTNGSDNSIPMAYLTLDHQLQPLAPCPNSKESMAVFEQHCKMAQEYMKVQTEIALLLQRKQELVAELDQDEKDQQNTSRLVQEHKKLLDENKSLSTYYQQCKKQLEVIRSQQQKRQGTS

[4] = biological target: T2, Serine/threonine-protein kinase Sgk1 (Homo sapiens) (UniProt O00141); test: Inhibition of human SGK1 using KGSGSGRPRTSSFAEG as substrate at 1 uM in presence of 32P-ATP by Hotspot assay relative to control; values are per cent of control
T2 sequence (whole entry): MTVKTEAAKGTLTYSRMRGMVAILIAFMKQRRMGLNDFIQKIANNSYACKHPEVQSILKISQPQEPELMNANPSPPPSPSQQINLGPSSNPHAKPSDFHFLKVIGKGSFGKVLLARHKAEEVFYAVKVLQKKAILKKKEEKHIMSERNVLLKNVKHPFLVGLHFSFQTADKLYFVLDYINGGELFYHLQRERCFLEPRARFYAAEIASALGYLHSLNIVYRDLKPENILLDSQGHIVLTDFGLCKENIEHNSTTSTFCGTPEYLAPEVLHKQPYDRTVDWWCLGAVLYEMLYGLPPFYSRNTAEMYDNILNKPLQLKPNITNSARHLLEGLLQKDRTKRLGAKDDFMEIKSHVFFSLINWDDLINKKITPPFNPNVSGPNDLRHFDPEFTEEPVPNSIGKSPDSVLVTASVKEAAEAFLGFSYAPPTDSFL

[5] = biological target: T3, G protein-coupled receptor kinase 3 (Homo sapiens) (UniProt P35626); test: Inhibition of human GRK3 using casein as substrate at 1 uM in presence of 32P-ATP by Hotspot assay relative to control; values are per cent of control
T3 sequence (whole entry): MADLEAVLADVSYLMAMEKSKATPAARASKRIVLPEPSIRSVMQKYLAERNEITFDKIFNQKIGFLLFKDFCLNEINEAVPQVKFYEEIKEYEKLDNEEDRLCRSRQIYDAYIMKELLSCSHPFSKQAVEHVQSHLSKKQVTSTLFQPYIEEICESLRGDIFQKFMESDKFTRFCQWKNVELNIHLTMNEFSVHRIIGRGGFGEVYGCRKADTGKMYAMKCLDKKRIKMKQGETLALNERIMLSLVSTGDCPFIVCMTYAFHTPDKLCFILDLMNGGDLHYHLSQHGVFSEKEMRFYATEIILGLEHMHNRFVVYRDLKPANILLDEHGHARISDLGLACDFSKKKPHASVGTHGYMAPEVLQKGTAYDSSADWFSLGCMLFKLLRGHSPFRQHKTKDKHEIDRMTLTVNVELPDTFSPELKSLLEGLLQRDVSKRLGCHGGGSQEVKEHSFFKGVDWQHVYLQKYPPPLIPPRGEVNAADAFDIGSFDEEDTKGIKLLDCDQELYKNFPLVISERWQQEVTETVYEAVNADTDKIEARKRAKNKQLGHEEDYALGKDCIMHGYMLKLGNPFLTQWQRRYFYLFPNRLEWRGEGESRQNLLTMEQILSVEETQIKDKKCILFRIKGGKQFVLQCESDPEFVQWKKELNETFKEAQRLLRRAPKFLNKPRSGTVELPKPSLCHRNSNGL

[6] = biological target: T4, Serine/threonine-protein kinase BRSK2 (Homo sapiens) (UniProt Q8IWQ3); test: Inhibition of human BRSK2 using KKLNRTLSFAEPG as substrate at 1 uM in presence of 32P-ATP by Hotspot assay relative to control; values are per cent of control
T4 sequence (whole entry): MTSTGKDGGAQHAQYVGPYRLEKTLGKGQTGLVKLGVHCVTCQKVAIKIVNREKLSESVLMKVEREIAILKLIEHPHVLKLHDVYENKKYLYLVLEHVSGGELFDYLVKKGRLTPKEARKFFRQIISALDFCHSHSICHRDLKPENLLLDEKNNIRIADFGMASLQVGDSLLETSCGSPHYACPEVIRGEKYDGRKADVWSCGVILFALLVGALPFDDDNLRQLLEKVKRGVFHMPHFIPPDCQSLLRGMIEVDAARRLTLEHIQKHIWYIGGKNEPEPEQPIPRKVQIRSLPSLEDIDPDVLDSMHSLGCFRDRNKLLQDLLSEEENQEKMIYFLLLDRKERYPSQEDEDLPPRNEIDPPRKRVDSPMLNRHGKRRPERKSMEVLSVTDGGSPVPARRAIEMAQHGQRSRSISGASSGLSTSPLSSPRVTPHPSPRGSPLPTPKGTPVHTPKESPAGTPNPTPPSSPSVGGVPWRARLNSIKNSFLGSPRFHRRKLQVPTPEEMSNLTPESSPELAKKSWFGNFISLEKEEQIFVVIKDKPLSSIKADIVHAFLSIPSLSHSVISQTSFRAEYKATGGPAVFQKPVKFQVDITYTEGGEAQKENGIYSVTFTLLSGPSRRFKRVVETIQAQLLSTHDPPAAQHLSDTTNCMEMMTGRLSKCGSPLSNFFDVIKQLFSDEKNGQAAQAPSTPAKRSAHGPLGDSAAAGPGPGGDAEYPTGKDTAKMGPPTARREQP

Chain of CDK1/Cyclin A (Homo sapiens) (P06493 whole entry, looked up): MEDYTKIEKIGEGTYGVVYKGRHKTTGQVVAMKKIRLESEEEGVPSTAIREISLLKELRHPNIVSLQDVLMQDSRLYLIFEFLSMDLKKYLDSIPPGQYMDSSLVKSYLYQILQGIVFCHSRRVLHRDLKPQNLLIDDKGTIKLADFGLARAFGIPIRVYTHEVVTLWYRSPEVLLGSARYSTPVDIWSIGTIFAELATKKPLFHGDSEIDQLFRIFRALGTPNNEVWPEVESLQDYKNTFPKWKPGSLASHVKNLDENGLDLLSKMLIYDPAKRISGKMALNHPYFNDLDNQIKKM
Chain of CDK1/Cyclin A (Homo sapiens) (P20248 whole entry, looked up): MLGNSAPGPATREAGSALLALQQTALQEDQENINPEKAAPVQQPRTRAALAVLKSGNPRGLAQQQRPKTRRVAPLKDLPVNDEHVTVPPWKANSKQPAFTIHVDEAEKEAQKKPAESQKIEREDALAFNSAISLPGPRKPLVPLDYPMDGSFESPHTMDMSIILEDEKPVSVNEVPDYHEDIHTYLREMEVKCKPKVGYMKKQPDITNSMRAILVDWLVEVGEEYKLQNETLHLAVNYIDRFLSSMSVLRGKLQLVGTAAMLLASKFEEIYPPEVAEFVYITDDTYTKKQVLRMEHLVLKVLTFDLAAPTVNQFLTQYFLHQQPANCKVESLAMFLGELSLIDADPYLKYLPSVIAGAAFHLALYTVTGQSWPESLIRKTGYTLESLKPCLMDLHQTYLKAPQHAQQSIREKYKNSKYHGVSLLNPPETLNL
Chain of Serine/threonine-protein kinase PLK1 (Homo sapiens) (P53350 whole entry): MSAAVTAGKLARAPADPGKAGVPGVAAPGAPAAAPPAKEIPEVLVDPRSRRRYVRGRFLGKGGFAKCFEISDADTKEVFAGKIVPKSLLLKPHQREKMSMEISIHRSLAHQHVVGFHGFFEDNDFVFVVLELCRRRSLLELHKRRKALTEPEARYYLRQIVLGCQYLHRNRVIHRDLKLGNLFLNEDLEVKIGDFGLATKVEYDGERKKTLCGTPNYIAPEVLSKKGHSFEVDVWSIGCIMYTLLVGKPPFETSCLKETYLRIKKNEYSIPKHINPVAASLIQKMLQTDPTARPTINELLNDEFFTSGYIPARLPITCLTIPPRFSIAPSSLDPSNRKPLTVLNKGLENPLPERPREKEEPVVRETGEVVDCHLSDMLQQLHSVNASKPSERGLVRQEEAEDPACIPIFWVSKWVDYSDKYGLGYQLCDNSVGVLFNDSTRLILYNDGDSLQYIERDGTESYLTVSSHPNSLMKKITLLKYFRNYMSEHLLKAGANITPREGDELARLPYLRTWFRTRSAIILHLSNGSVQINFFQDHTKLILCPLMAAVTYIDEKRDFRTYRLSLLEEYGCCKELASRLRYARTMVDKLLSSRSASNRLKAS

`CNC(=O)c1ccc2c(c1)ncn2-c1ccc(CC(=O)OC(C)(C)C)cc1` gave a residual activity [1] of 103%, a residual activity [2] of 94.5% and a residual activity [3] of 106%. For the same molecule, the residual activity [4] was 94.2%, the residual activity [5] was 108% and the residual activity [6] was 92%.
Work on `Cc1cc(-c2cnc(N)c3c(-c4ccc5scnc5c4)csc23)n(C)n1` yielded a residual activity [1] of 98.6%, a residual activity [2] of 98.9% and a residual activity [3] of 96.2%. For the same molecule, the residual activity [4] was 94.2%, the residual activity [5] was 80.9% and the residual activity [6] was 89%.
In the case of `CC(C)S(=O)(=O)c1ccc2nccc(Nc3ccc4scnc4c3)c2c1`, the residual activity [1] is reported as 95.4%, the residual activity [2] is reported as 88.6% and the residual activity [3] is reported as 97.6%. For the same molecule, the residual activity [4] was 95.7%, the residual activity [5] was 99.5% and the residual activity [6] was 99.4%.
